Measurements: publication PMC12123458, “Unraveling Small Molecule-Mediated Sirtuin 3 Activation at a Distinct Binding Site for Cardioprotective Therapies” (ACS Central Science, 2025)
Where two headings read alike, the source gives them in different places.

Tests used:
SIRT3 = target: T1, SIRT3 (Homo sapiens, UniProt Q9NTG7); assay: SPR binding to immobilized SIRT3; settings: 25 °C, PBST pH 7.4
T1 construct: purchased Enzo Life Sciences BML-AK557-0001
T1 sequence (Q9NTG7 1-399): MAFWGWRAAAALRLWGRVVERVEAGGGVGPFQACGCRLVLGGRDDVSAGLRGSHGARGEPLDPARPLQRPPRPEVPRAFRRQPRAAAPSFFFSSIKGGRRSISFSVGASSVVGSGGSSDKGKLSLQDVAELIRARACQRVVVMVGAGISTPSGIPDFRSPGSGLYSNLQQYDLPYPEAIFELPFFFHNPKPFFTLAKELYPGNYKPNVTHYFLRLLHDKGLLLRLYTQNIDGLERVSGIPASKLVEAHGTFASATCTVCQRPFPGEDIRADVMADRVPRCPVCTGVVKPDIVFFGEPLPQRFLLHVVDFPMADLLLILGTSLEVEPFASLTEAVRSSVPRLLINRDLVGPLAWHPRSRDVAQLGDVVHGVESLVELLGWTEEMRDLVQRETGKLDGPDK
Method: (§1) The affinity of SKLB-11A for SIRT1, SIRT2, SIRT3, SIRT5, and SIRT6 was determined using a Reichert 4SPR system (Reichert Technologies, Depew, NY, USA). Proteins at 200 μg/mL were immobilized on a dextran-coated sensor chip (13206066) until reaching ≥12,000 response units (RUs). A dual-flow channel setup was used, reserving one channel for blank controls. SKLB-11A was introduced at varying concentrations for binding and subsequent dissociation kinetic analysis. Data acquisition was at 25 °C utilizing a PBST running buffer (pH 7.4). The equilibrium dissociation constant (K d) was computed from steady-state affinity measurements using TraceDrawer software.

H9c2 cells = assay: Dox-induced cardiotoxicity model in H9c2 cells, MTT cell viability; format: cell-based
Method: H9c2 cardiomyocytes were cultured in high-glucose DMEM supplemented with 10% FBS and 1% penicillin/streptomycin under a 5% CO2 atmosphere at 37 °C. Cells were seeded at 5 × 10^4 cells/mL in 96-well plates and treated with 1 μM Dox for 24 h. After Dox treatment, cell viability was quantified via MTT assay; 3-(4,5-dimethythiazol-2-yl)-2,5-diphenyltetrazolium bromide (MTT, 5 mg/mL) was applied for 4 h, followed by DMSO dissolution of formazan crystals. Additionally, cells were pretreated with 10 μM SKLB-11A for 24 h prior to 1 μM Dox exposure, and viability was similarly assessed using MTT.

[1] = Pharmacokinetics in SD rats; format: in vivo, Sprague–Dawley (SD) rats; settings: for MRT inf: read-out: MRT0–∞; for half-life: read-out: T1/2z (converted)
Method: Given the potential of SKLB-11A for treating myocardial injury, we further evaluated its pharmacokinetic profile in Sprague–Dawley (SD) rats (Supplementary Table S5). The pharmacokinetics were assessed following both intravenous injection (1 mg/kg) and intragastric administration (10 mg/kg) of SKLB-11A.

SIRT2 = target: T2, SIRT2 (Homo sapiens, UniProt Q8IXJ6); assay: SPR binding to SIRT2
T2 sequence (Q8IXJ6 1-389): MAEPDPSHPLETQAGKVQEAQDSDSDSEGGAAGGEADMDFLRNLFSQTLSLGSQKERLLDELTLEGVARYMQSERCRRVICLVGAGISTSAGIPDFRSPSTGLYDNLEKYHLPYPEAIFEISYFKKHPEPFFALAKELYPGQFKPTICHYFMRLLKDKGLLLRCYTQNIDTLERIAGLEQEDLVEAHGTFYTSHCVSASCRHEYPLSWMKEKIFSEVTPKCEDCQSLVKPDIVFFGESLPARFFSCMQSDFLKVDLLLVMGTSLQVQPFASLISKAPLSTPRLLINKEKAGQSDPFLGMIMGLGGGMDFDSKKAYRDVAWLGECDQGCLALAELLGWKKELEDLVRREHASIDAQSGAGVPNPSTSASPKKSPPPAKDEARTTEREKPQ
Method: as §1

[2] = Sprague-Dawley, rat, in vivo, iv, i.v. 1 mg/kg
[3] = Sprague-Dawley, rat, in vivo, po, p.o. 10 mg/kg

COC(=O)c1c(N)n(Cc2ccc(F)cc2)c2nc3ccccc3nc12 [SKLB-11A, Methyl 2-amino-1-(4-fluorobenzyl)-1H-pyrrolo[2,3-b]quinoxaline-3-carboxylate]
Kd (SIRT3): 4.7 µM | protective effects on H9c2 cells compared to the positive control compounds (H9c2 cells; Dox-treated H9c2, MTT): slightly better protective effects | viability at 10 µM (H9c2 cells; Rattus norvegicus, H9c2, 10 µM pretreatment 24 h, then 1 µM Dox 24 h, MTT, Model (Dox) = Dox alone, read-out: Cardiomyocyte survival rate at 10 uM (%)): 78.88 ± 0.65% | cardioprotective effects in H9c2 cells with reduced SIRT3 expression (H9c2 cells; SIRT3 knockdown by shRNA, cell viability): significantly diminished | AUC(0-inf) [1, 2]: 185 ± 20 ng·h/mL | AUC(0-t) [1, 2]: 185 ± 19.9 ng·h/mL | Cmax [1, 2]: 255 ± 3.42 ng/mL | Tmax [1, 2]: 4.8 min | clearance ([1]; Sprague-Dawley, rat, in vivo, iv, i.v. 1 mg/kg, read-out: CLZ (converted)): 90.7 mL/min/kg | MRT inf [1, 2]: 43.2 ± 3.6 min | half-life [1, 2]: 36 ± 3.6 min | Vd ([1]; Sprague-Dawley, rat, in vivo, iv, i.v. 1 mg/kg, read-out: VZ): 4.66 ± 0.2 L/kg | AUC(0-inf) [1, 3]: 128 ± 29.2 ng·h/mL | AUC(0-t) [1, 3]: 123 ± 23.6 ng·h/mL | Cmax [1, 3]: 67.9 ± 13 ng/mL | Tmax [1, 3]: 15 min | MRT inf [1, 3]: 266 ± 107 min | half-life [1, 3]: 326 ± 156 min | VZ ([1]; p.o. 10 mg/kg): 39.99 ± 12.09 L/kg | Kd (SIRT2; SPR): > 200 µM | affinity for SIRT2 lower than its affinity for SIRT3 (SIRT2; SPR Kd ratio): approximately 40 times
